Experimental data published in ChEMBL document CHEMBL3044644, “Syntheses and antiproliferative activity of some sulfated hydroximinosterols” (Med Chem Res, 2013).
pIC50: −log10 of the molar value.

Key:
Type in all cases: functional, cell-based
[1] = Cytotoxicity against Homo sapiens (human) MGC7901 cells assessed as cell viability after 72 hr by MTT assay
[2] = Cytotoxicity against Homo sapiens (human) SMMC-7404 cells assessed as cell viability after 72 hr by MTT assay
HeLa = experiment: Cytotoxicity against Homo sapiens (human) HeLa cells assessed as cell viability after 72 hr by MTT assay

SMILES | IC50 [1] | IC50 [2] | pIC50 (HeLa)
CC(C)CCC[C@@H](C)[C@H]1CC[C@H]2[C@@H]3C/C(=N/O)C4C[C@@H](OS(=O)(=O)[O-])CC[C@]4(C)[C@H]3CC[C@]12C.[Na+] (some centres not stated) | 6.5 µM | 12.9 µM | 5.02
CC[C@H](/C=C/[C@@H](C)[C@H]1CC[C@H]2[C@@H]3C/C(=N/O)C4C[C@@H](OS(=O)(=O)[O-])CC[C@]4(C)[C@H]3CC[C@]12C)C(C)C.[Na+] (some centres not stated) | 27.7 µM | > 100 µM | 4.84
CC(C)CCC[C@@H](C)[C@H]1CC[C@H]2[C@@H]3C/C(=N/O)C4=C[C@@H](OS(=O)(=O)[O-])CC[C@]4(C)[C@H]3CC[C@]12C.[Na+] | > 100 µM | 62.2 µM | 4.60
CC(C)CCC[C@@H](C)[C@H]1CC[C@H]2[C@@H]3C[C@H](OS(=O)(=O)[O-])C4C/C(=N/O)CC[C@]4(C)[C@H]3CC[C@]12C.[Na+] (some centres not stated) | 33.3 µM | 10.2 µM | 4.90
